Read-outs that look alike come from different tables or passages of the source.
Columns and labels:
[1] = target: T1, CB1 (rCB1) (Rattus norvegicus, UniProt P20272); assay: Radioligand competition binding, [3H]-CP-55,940, rat brain membranes; settings: rCB1
[2] = target: hCB1 (Homo sapiens, UniProt P21554); assay: bioSensAll ebBRET signaling profiling, hCB1; assay type: cell-based; design: host or cells: HEK293SL cells, transient PEI transfection; settings: for Barr2+GRK2 hCB1 response: Barr2+GRK2 biosensor; for Gi1 hCB1 / GoB hCB1: single replicate values, FigS6a; for EC50: hCB1 GoB; for Emax: normalized to CP-55,940
hCB1, sequence (P21554 whole entry): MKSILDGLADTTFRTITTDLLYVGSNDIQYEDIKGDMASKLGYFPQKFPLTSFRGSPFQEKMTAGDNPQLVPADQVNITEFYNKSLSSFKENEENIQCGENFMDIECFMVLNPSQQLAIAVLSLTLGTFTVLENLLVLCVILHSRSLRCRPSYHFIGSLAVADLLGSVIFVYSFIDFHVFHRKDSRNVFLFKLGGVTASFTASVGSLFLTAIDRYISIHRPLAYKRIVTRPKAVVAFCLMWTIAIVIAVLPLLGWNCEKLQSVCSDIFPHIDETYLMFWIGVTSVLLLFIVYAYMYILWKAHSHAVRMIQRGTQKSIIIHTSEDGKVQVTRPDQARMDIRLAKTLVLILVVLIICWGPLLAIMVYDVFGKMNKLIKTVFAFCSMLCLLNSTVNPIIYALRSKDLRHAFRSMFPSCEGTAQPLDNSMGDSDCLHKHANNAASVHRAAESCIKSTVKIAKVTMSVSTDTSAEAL

[3] = target: T1, CB1 (rCB1); assay: Single-point radioligand displacement screen; assay type: binding; settings: 10 µM, 1 µM or 300 nM by cell colour (not visible)

T1 sequence (P20272 whole entry): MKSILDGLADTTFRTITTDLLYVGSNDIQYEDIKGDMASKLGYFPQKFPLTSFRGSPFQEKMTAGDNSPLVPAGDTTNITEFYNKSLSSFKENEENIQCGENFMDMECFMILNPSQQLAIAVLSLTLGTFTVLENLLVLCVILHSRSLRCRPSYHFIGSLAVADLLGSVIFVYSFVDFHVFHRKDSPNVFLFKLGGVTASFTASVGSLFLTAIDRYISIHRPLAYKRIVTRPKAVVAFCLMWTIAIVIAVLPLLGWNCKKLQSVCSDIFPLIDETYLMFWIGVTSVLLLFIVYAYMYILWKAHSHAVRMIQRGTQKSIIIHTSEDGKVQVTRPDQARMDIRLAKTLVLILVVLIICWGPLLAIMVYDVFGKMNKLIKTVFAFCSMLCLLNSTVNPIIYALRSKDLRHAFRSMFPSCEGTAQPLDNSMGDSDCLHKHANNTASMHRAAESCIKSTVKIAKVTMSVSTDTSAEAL

Cn1nc(-c2nnc(C(C)(C)Oc3ccc(C(F)(F)F)cc3)o2)c2ccccc2c1=O [‘2153]
pKi [95% CI] [1]: 6.79 [6.5 – 7.0] | Barr2+GRK2 hCB1 response ([2]; Log [Compound] (M) -4.22186): 52.3115 | Barr2+GRK2 hCB1 response ([2]; Log [Compound] (M) -4.63927): 1.898 | Barr2+GRK2 hCB1 response ([2]; Log [Compound] (M) -5.05788): -31.9237 | Barr2+GRK2 hCB1 response ([2]; Log [Compound] (M) -5.47381): -49.7918 | Barr2+GRK2 hCB1 response ([2]; Log [Compound] (M) -5.89285): -32.2428 | Barr2+GRK2 hCB1 response ([2]; Log [Compound] (M) -6.31878): -30.3284 | Barr2+GRK2 hCB1 response ([2]; Log [Compound] (M) -6.72585): -23.6278 | Barr2+GRK2 hCB1 response ([2]; Log [Compound] (M) -7.14267): -46.282 | Barr2+GRK2 hCB1 response ([2]; Log [Compound] (M) -7.55284): -43.4104 | Barr2+GRK2 hCB1 response ([2]; Log [Compound] (M) -8): -60.3212 | Barr2+GRK2 hCB1 response ([2]; Log [Compound] (M) -8.22186): 12.7465 | Barr2+GRK2 hCB1 response ([2]; Log [Compound] (M) -8.39794): -37.9861 | Barr2+GRK2 hCB1 response ([2]; Log [Compound] (M) -8.68787): -0.01644 | Barr2+GRK2 hCB1 response ([2]; Log [Compound] (M) -9.15521): -27.1376 | Barr2+GRK2 hCB1 response ([2]; Log [Compound] (M) -9.61989): -19.4799 | Barr2+GRK2 hCB1 response ([2]; Log [Compound] (M) -10.0969): -46.6011 | Barr2+GRK2 hCB1 response ([2]; Log [Compound] (M) -10.5529): -22.3515 | Barr2+GRK2 hCB1 response ([2]; Log [Compound] (M) -11.0177): -18.8417 | Barr2+GRK2 hCB1 response ([2]; Log [Compound] (M) -11.4949): -32.5619 | Barr2+GRK2 hCB1 response ([2]; Log [Compound] (M) -11.9208): -20.4371 | Barr2+GRK2 hCB1 response ([2]; Log [Compound] (M) -12.3979): -30.0093 | Barr2+GRK2 hCB1 response ([2]; Log [Compound] (M) -12.8861): -33.2 | Barr2+GRK2 hCB1 response ([2]; Log [Compound] (M) -13.3979): 30.2955 | Gi1 hCB1 ([2]; Log [Compound] (M) -4.22186): 75.7197 | GoB hCB1 ([2]; Log [Compound] (M) -4.22186): 87.0618 | Gi1 hCB1 ([2]; Log [Compound] (M) -4.63927): 62.7492 | GoB hCB1 ([2]; Log [Compound] (M) -4.63927): 68.3981 | Gi1 hCB1 ([2]; Log [Compound] (M) -5.05788): 53.1046 | GoB hCB1 ([2]; Log [Compound] (M) -5.05788): 59.4743 | Gi1 hCB1 ([2]; Log [Compound] (M) -5.47381): 46.6906 | GoB hCB1 ([2]; Log [Compound] (M) -5.47381): 51.6096 | Gi1 hCB1 ([2]; Log [Compound] (M) -5.89285): 39.3106 | GoB hCB1 ([2]; Log [Compound] (M) -5.89285): 42.3906 | Gi1 hCB1 ([2]; Log [Compound] (M) -6.31878): 39.2789 | GoB hCB1 ([2]; Log [Compound] (M) -6.31878): 35.0814 | Gi1 hCB1 ([2]; Log [Compound] (M) -6.72585): 25.5166 | GoB hCB1 ([2]; Log [Compound] (M) -6.72585): 29.2133 | Gi1 hCB1 ([2]; Log [Compound] (M) -7.14267): 15.7294 | GoB hCB1 ([2]; Log [Compound] (M) -7.14267): 18.1713 | Gi1 hCB1 ([2]; Log [Compound] (M) -7.55284): 6.592 | GoB hCB1 ([2]; Log [Compound] (M) -7.55284): 8.536 | Gi1 hCB1 ([2]; Log [Compound] (M) -8): 0.6052 | GoB hCB1 ([2]; Log [Compound] (M) -8): 0.9487 | Gi1 hCB1 ([2]; Log [Compound] (M) -8.22186): 7.605 | GoB hCB1 ([2]; Log [Compound] (M) -8.22186): 6.383 | Gi1 hCB1 ([2]; Log [Compound] (M) -8.39794): -1.77 | GoB hCB1 ([2]; Log [Compound] (M) -8.39794): -8.426 | Gi1 hCB1 ([2]; Log [Compound] (M) -8.68787): -5.112 | GoB hCB1 ([2]; Log [Compound] (M) -8.68787): -5.249 | Gi1 hCB1 ([2]; Log [Compound] (M) -9.15521): -4.764 | GoB hCB1 ([2]; Log [Compound] (M) -9.15521): -4.208 | Gi1 hCB1 ([2]; Log [Compound] (M) -9.61989): -4.051 | GoB hCB1 ([2]; Log [Compound] (M) -9.61989): -5.197 | Gi1 hCB1 ([2]; Log [Compound] (M) -10.0969): -5.445 | GoB hCB1 ([2]; Log [Compound] (M) -10.0969): -5.371 | Gi1 hCB1 ([2]; Log [Compound] (M) -10.5529): -5.27 | GoB hCB1 ([2]; Log [Compound] (M) -10.5529): -5.926 | Gi1 hCB1 ([2]; Log [Compound] (M) -11.0177): -5.413 | GoB hCB1 ([2]; Log [Compound] (M) -11.0177): -5.284 | Gi1 hCB1 ([2]; Log [Compound] (M) -11.4949): -5.698 | GoB hCB1 ([2]; Log [Compound] (M) -11.4949): -6.413 | Gi1 hCB1 ([2]; Log [Compound] (M) -11.9208): -5.872 | GoB hCB1 ([2]; Log [Compound] (M) -11.9208): -5.041 | Gi1 hCB1 ([2]; Log [Compound] (M) -12.3979): -4.415 | GoB hCB1 ([2]; Log [Compound] (M) -12.3979): -7.09 | Gi1 hCB1 ([2]; Log [Compound] (M) -12.8861): -6.854 | GoB hCB1 ([2]; Log [Compound] (M) -12.8861): -5.666 | Gi1 hCB1 ([2]; Log [Compound] (M) -13): -4.779 | GoB hCB1 ([2]; Log [Compound] (M) -13): -5.6139 | Gi1 hCB1 ([2]; Log [Compound] (M) cell empty): -2.087 | GoB hCB1 ([2]; Log [Compound] (M) cell empty): -1.829 | pEC50 [95% CI] ([2]; hCB1 Gi1): 6.0 [5.2 – 6.4] | EC50 [2]: 2000 nM | EC50 ([2]; read-out: EC50 [95% CI]): 2060 nM | Emax ([2]; read-out: Emax [95% CI], hCB1 Gi1): 89% | Emax ([2]; read-out: Emax [95% CI], hCB1 GoB): 109% | % 1H-CP-55,940 displacement (mean) from single point screen [3]: 89.82%
